From article PMC6177235 (Bioorganic & medicinal chemistry, 2018)
Values after ≈ are worked out from the molar mass of the structure shown. “Also recorded” adds a separate entry of the source.

Columns and labels:
[1] = Cytotoxicity assays, statements on the whole panel of cell lines; details: human
[2] = system: melanoma tumor; details: cited from earlier work
[3] = system: mitochondrial transmembrane potential (MTP) in HT-29 cells; assay: Mitochondrial transmembrane potential; type: cell-based, human
[4] = system: HT-29, MDA-MB-231, MDA-MB-435 and OVCAR3 human cancer cell lines; assay: Cytotoxicity assays, statements on the whole panel of cell lines; details: all cytotoxicity assays used
[5] = biological target: NF-κB p65 in HeLa cells (Homo sapiens, UniProt Q04206); assay: Enzyme-based ELISA assay for NF-κB inhibition; type: cell-based
NF-κB p65 in HeLa cells, sequence (Q04206 whole entry): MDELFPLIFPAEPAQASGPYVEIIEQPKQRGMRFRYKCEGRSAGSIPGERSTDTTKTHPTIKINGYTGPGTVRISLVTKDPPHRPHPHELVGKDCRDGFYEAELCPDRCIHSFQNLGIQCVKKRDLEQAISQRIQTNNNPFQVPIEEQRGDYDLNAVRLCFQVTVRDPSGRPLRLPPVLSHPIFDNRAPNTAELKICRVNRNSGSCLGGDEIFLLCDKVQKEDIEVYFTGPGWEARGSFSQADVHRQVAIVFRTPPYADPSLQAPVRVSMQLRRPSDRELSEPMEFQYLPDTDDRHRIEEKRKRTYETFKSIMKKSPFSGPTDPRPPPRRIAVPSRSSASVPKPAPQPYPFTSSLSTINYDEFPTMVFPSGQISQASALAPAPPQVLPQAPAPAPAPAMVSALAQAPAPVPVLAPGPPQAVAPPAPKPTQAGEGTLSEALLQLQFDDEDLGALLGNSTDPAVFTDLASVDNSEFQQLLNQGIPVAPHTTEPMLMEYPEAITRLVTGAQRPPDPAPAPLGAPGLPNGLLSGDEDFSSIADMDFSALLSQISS

[6] = system: DU145 human prostate cancer cells; details: prostate tumor model; cited from earlier work
[7] = system: OVCAR3 human ovarian cancer cell line; assay: Cytotoxicity assay, OVCAR3 cells; type: cell-based; details: OVCAR-3, 72 h, read-out: IC50 toward OVCAR3 cells
[8] = in vitro; details: human

For C=C(C)[C@@H]1CC[C@]2(C(=O)O)CC[C@]3(CO)[C@H](CC[C@@H]4[C@@]5(C)CC[C@H](O)C(C)(C)[C@@H]5CC[C@]43C)[C@@H]12 [Compound 6, (+)-cylicodiscic acid], the IC50 at 72 h [1] was > 10 µM.

For C=C(C)[C@@H]1CC[C@]2(C(=O)O)CC[C@]3(C)[C@H](CC[C@@H]4[C@@]5(C)CC[C@H](O)C(C)(C)[C@@H]5CC[C@]43C)[C@@H]12 [Compound 9, (+)-betulinic acid], the “melanoma tumor growth in vivo” value ([2]; mice) is given as “inhibit completely”, the “toxicity observed in mice” value ([2]; mouse, in vivo) is given as “without any obvious toxicity” and the “activity in the MTP inhibition assay (in words)” value [3] is given as “same potency as 1; also recorded: active”. The “activity in the cytotoxicity assays (in words)” value [4] was “Neither 8 nor 9 showed activity”.

For C=C(C)[C@@H]1CC[C@]2(C(=O)O)CC[C@]3(C(=O)O)[C@H](CC[C@@H]4[C@@]5(C)CC[C@H](O)C(C)(C)[C@@H]5CC[C@]43C)[C@@H]12 [Compound 4, (+)-melaleucic acid], the IC50 at 72 h [1] was > 10 µM.

With C=C(C)[C@@H]1CC[C@]2(C(=O)OC)CC[C@]3(C(=O)O)[C@H](CC[C@@H]4[C@@]5(C)CC[C@H](O)C(C)(C)[C@@H]5CC[C@]43C)[C@@H]12 [Compound 3, (+)-melaleucic acid 28-methyl ester] the “activity in the NF-κB inhibition assay (in words)” value [5] was “exhibited activity” and the IC50 at 72 h [1] was > 10 µM.

With C[C@H]1[C@H](C)CC[C@]2(CO)CC[C@]3(C)C(=CC[C@@H]4[C@@]5(C)CC[C@H](O)C(C)(C)[C@@H]5CC[C@]43C)[C@H]12 [Compound 10, (+)-uvaol] the “activity in the MTP inhibition assay (in words)” value [3] was “did not show any activities”, the “activity in the NF-κB inhibition assay (in words)” value [5] was “did not show any activities” and the “activity in the cytotoxicity assays (in words)” value [4] was “did not show any activities”.

For C=C(C)[C@@H]1CC[C@]2(C(=O)O)CC[C@]3(C)[C@H](CC[C@@H]4[C@@]5(C)C[C@@H](O)[C@H](O)C(C)(C)[C@@H]5CC[C@]43C)[C@@H]12 [Compound 5, (+)-alphitolic acid], the “activity in the NF-κB inhibition assay (in words)” value [5] was “exhibited activity” and the IC50 at 72 h [1] was > 10 µM.

In the case of C=C(C)[C@@H]1CC[C@]2(CO)CC[C@]3(C)[C@H](CC[C@@H]4[C@@]5(C)CC[C@H](O)C(C)(C)[C@@H]5CC[C@]43C)[C@@H]12 [Compound 12, (+)-betulin], the “activity in the MTP inhibition assay (in words)” value [3] is reported as “did not show any activities; also recorded: inactive”, the “activity in the NF-κB inhibition assay (in words)” value [5] is reported as “exhibited activity” and the IC50 at 72 h [1] is reported as > 10 µM. The “activity in the cytotoxicity assays (in words)” value [4] was “did not show any activities”.

In the case of CC1(C)CC[C@]2(C(=O)O)CC[C@]3(C)C(=CC[C@@H]4[C@@]5(C)CC[C@H](O)C(C)(C)[C@@H]5CC[C@]43C)[C@@H]2C1 [Compound 8, (+)-oleanolic acid], the “activity in the MTP inhibition assay (in words)” value [3] is reported as “inactive” and the “activity in the cytotoxicity assays (in words)” value [4] is reported as “Neither 8 nor 9 showed activity”.

In the case of CC1(C)CC[C@]2(CO)CC[C@]3(C)C(=CC[C@@H]4[C@@]5(C)CC[C@H](O)C(C)(C)[C@@H]5CC[C@]43C)[C@@H]2C1 [Compound 11, (+)-erythrodiol], the “activity in the MTP inhibition assay (in words)” value [3] is reported as “did not show any activities”, the “activity in the NF-κB inhibition assay (in words)” value [5] is reported as “did not show any activities” and the “activity in the cytotoxicity assays (in words)” value [4] is reported as “did not show any activities”.

For C=C(C)[C@@H]1CC[C@]2(C(=O)O)CC[C@]3(C)[C@H](CC[C@@H]4[C@@]5(C)CC[C@H](OC(=O)/C=C/c6ccc(O)c(OC)c6)C(C)(C)[C@@H]5CC[C@]43C)[C@@H]12 [S13, (+)-3β-O−tram,-feruloylbetulinic acid], the “activity in the MTP inhibition assay (in words)” value [3] was “active”, the “activity in the NF-κB inhibition assay (in words)” value [5] was “exhibited activity” and the IC50 at 72 h [1] was > 10 µM.

In the case of C[C@H]1[C@H](C)CC[C@]2(C(=O)O)CC[C@]3(C)C(=CC[C@@H]4[C@@]5(C)CC[C@H](O)C(C)(C)[C@@H]5CC[C@]43C)[C@H]12 [Compound 1, (+)-ursolic acid], the mouse body weight [6] is given as “without significant decrease” and the IC50 [7] is given as 12.9 µg/mL (≈ 28.2 µM).

In the case of C=C(C)[C@@H]1CC[C@]2(C(=O)O)CC[C@]3(C)[C@H](CC[C@@H]4[C@@]5(C)C[C@@H](O)[C@H](OC(=O)/C=C/c6ccc(O)cc6)C(C)(C)[C@@H]5CC[C@]43C)[C@@H]12 [Compound 7, (+)-3-O−β-trans-p−coumaroylalphitolic acid], the IC50 at 72 h [8] is reported as > 10 µM and the “activity in the NF-κB inhibition assay (in words)” value [5] is reported as “exhibited activity”.
